Bounds are passed on as bounds.

The first assay deals with T1, Tau-Synaptogyrin3 interaction (Homo sapiens, UniProt O43761+P10636).
T1 construct: expressed in transfected cells
T1 sequence (P10636 1-441 isoform P10636-8): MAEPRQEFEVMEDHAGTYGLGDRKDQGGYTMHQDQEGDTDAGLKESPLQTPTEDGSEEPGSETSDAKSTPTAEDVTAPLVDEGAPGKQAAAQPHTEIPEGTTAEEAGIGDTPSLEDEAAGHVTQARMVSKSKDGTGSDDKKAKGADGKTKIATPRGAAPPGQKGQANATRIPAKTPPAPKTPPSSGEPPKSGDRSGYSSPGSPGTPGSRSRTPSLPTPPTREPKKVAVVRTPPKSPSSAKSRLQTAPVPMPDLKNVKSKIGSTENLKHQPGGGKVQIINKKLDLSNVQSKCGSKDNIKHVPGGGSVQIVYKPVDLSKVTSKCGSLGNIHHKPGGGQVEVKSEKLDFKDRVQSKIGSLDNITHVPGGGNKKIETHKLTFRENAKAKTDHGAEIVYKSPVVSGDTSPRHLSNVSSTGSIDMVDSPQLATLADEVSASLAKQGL
T1 sequence (O43761 whole entry): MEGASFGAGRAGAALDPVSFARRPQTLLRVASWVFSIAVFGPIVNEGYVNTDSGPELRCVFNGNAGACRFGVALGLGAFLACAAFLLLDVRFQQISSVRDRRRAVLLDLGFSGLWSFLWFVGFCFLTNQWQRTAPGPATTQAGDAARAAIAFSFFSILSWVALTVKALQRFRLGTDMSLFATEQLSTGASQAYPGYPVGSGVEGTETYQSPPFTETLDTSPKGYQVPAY
Nature of the assay: Cell-based split luciferase (NanoBit) protein complementary assay for Tau-Synaptogyrin3 interaction in stable cell line HEK293T-TK252-1E2. As to conditions: HEK293T-TK252-1E2 cells, 48 hrs compound treatment, L/F value (luciferase activity/fluorescent intensity) compared to DMSO control. As for the experimental part: Live cell luciferase assay: Live cell luciferase activity was measured using NanoGlo® Live Cell Assay System (Cat# N2012. Promega, WI, USA), according to manufacturer's instruction. All microplate-based measurement was performed with BioTek Synergy H1 (Agilent. CA, USA).
For producing HEK293T-TK252 stable cell line for screening, BglII-linearized pTK252 was transfected to HEK293T cells. After 24 hrs transfection, the transfected cells were cultured in the culture media containing 1 µg/ml puromycin (10 mM in DMSO, Cat# J61278/ Alfa Aesar. ThermoFisher Korea, Seoul, Korea) for 9 days. Regular media change was performed in every 3 days with fresh puromycin of indicating concentration during the whole selection period. The selected cells were trypsinized and diluted to 5 cells/ml and seeded to 4x 96 well cell culture plates (100 µl/well), and cultured with the cell culture media containing 1 µg/ml puromycin for 11 days. 18 wells that contained only GFP-positive cells were selected for expansion, and cultured with the cell culture media containing 0.1-0.2 µg/ml puromycin for 14 days. 10 clones were discarded during the expansion due to emerging of non-GFP cells, and 8 clones were validated. The selected clone (1E2) was cultured with the cell culture media containing 0.5 µg/ml puromycin for further experiments.
3 µmol of 1,728 compounds were purchased from Otava Chemicals MB (Vilniaus, Lithuania), dissolved into 300 µl DMSO (10 mM) and stored at -80°C. 4x10^4 HEK293T-TK252-1E2 cells were seeded with 100 µl of the cell culture media into 96 white well cell culture plates (Cat# 30196. SPL, Seoul, Korea), 48 hrs prior to compound treatment. For 10 µM compound treatment, 10 mM compound stock was diluted to 50 µM with the cell culture media, and 25 µl of the diluted compound was added to the designated wells of the 96 well plates. For dose-response experiments, the amount of compounds for dilution was adjusted to fit the volume indicated above. After 48 hrs compound treatment, the cells were washed once with OptiMEM and live cell luciferase activity, fluorescent intensity and fluorescence area scan was measured.
1,728 compounds were treated at 10 µM to HEK293T-TK252-1E2 cells and incubated for 48 hrs. […] Single wash step with culture media without FBS was included before measurement to discard dead cells and to remove FBS that affects luciferase assay. […] Fluorescent intensity was taken for normalization, which is expected to be proportion to the cell number at the measuring point. L/F value which is luciferase activity normalized with fluorescent intensity (L/F = Luciferase activity/ Fluorescent intensity) was calculated for all measurements and compared to L/F value of DMSO controls to calculated the size of inhibitory effect. […] Fluorescence area scan (FA) performed right after luciferase activity and fluorescent intensity measurement, to validate total remaining fluorescent cells in a well as a proxy to the cellular toxicity. FA value was in proportion to WST assay results (data not shown), and average CV of triplicates of all measurements was 0.04.
61 compounds were further tested for dose-response profile, based on inhibitory effect that was measured by L/F value (<60%) and FA-based cell viability (>90%) at 10 µM compared to DMSO control. 10 compounds were considered as hit compounds through three times of reproduction.
Turning to `O=C(c1ccccc1)N1CCc2[nH]c3ccc(-c4ccc(C5CCCCC5)cc4)cc3c2C1` [Formula 66, (8-(4-Cyclohexylphenyl)-1,3,4,5-tetrahydro-2H-pyrido[4,3-b]indol-2-yl)(phenyl)methanone], the IC50 (as a rule, the midpoint of a concentration-inhibition curve) fell in the range of 12 to 25 µM. Turning to `CN(C)c1ccc(-c2ccc3[nH]c4c(c3c2)CN(C(=O)c2ccccc2)CC4)cc1` [Formula 73, (8-(4-(Dimethylamino)phenyl)-1,3,4,5-tetrahydro-2H-pyrido[4,3-b]indol-2-yl)(phenyl)methanone], the IC50 lay within 3 to 12 µM. Turning to `N#Cc1ccc(-c2ccc3[nH]c4c(c3c2)CN(C(=O)c2ccccc2)CC4)cc1` [Formula 50], the IC50 was below 3 µM. Take `Cc1cccc(-c2ccc3[nH]c4c(c3c2)CN(C(=O)c2ccccc2)CC4)c1` [Formula 28, Phenyl(8-(m-tolyl)-1,3,4,5-tetrahydro-2H-pyrido[4,3-b]indol-2-yl)methanone]: the half-maximal inhibitory concentration (IC50) was below 3 µM.

Take `Cc1cccc(C(=O)N2CCc3[nH]c4ccc(-c5ccc(C#N)cc5)cc4c3C2)c1` [Formula 53]: the IC50 lay in the range of 3 to 12 µM. Take `Cc1ccc(C(=O)N2CCc3[nH]c4ccc(-c5ccccc5C#N)cc4c3C2)cc1` [Formula 59, 2-(2-(4-Methylbenzoyl)-2,3,4,5-tetrahydro-1H-pyrido[4,3-b]indol-8-yl)benzonitrile]: the 50% inhibitory concentration (IC50) fell in the range of 3 to 12 µM. Regarding `Cc1ccc(C(=O)N2CCc3[nH]c4ccc(-c5ccccc5)cc4c3C2)cc1` [Formula 14, (8-phenyl-1,3,4,5-tetrahydro-2H-pyrido[4,3-b]indol-2-yl)(p-tolyl)methanone], the IC50 is below 3 µM.

Regarding `Cc1ccc(C(=O)N2CCc3[nH]c4ccc(-c5ccc(C#N)cc5)cc4c3C2)cn1` [Formula 54], the IC50 fell in the range of 3 to 12 µM.

`Cc1cnc(C(=O)N2CCc3[nH]c4ccc(-c5ccccc5)cc4c3C2)cn1` [Formula 6, (5-methylpyrazin-2-yl)(8-phenyl-1,3,4,5-tetrahydro-2H-pyrido[4,3-b]indol-2-yl)methanone]: the IC50 was in the range of 12 to 25 µM. With `O=C(c1nccs1)N1CCc2[nH]c3ccc(-c4ccccc4)cc3c2C1` [Formula 11, (8-phenyl-1,3,4,5-tetrahydro-2H-pyrido[4,3-b]indol-2-yl)(thiazol-2-yl)methanone], the half-maximal inhibitory concentration (IC50) fell in the range of 3 to 12 µM. On the same count and under the same terms, the result for `Cc1ccc(-c2ccc3c(c2)c2c(n3C)CCN(C(=O)c3ccccc3)C2)cc1` [Formula 43, (5-methyl-8-(p-tolyl)-1,3,4,5-tetrahydro-2H-pyrido[4,3-b]indol-2-yl)(phenyl)methanone] reads 3 to 12 µM; that for `O=C(c1ccncc1)N1CCc2[nH]c3ccc(-c4ccccc4)cc3c2C1` [Formula 3], 3 to 12 µM; that for `O=C(c1ccccc1)N1CCc2[nH]c3ccc(-c4ccccc4)cc3c2C1` [Formula 9, Phenyl(8-phenyl-1,3,4,5-tetrahydro-2H-pyrido[4,3-b]indol-2-yl)methanone], 3 to 12 µM.

In the case of `Cc1ccc(-c2ccc3[nH]c4c(c3c2)CN(C(=S)Nc2ccccc2)CC4)cc1` [Formula 74, N-phenyl-8-(p-tolyl)-1,3,4,5-tetrahydro-2H-pyrido[4,3-b]indole-2-carbothioamide], the IC50 lay in the range of 3 to 12 µM.

The test system of another assay is TtgA / PTtgR phloretin-inducible gene expression system. Nature of the assay: Phloretin-regulated EGFP expression (pTK269: PCAG-TtgA and pTK274: PTtgR-EGFP) in HEK293T. Format: cell-based, Human. The settings on record: HEK293T co-transfected with pTK269 and pTK274, 0 - 50 µM phloretin, 48 hours. As for the experimental part: • FIG. 1 is a fluorescence microscopy image of the HEK293T cell line transfected with EGFP-fused Tau (pTK231: P(CMV)-Tau-EGFP) and Synaptogyrin 3 (pTK233:P(CMV)-EGFP-Synaptogyrin 3), showing the expression of both proteins 48 hours after transfection. • FIG. 2a is a schematic of the Protein Complementary Assay (PCA) process using the split luciferase method. Split luciferase consists of two fragments of the luciferase enzyme: a small bit (sBit) and a large bit (Lbit). […] Therefore, by fusing each fragment of the split luciferase to Tau and Synaptogyrin3, luciferase activity may be induced as a result of the interaction between Tau and Synaptogyrin3. […] The system includes a synthetic transcriptional activator, TtgA, and a synthetic promoter, PTtgR, prepared based on the flavonoid-regulated TtgR operon of the Pseudomonas putida DOT-T1E strain. In the absence of phloretin, TtgA binds to PTtgR and activates transcription (without phloretin), while in the presence of phloretin, TtgA dissociates from DNA and transcription is not activated (with phloretin). […] In the stable cell line HEK293T-TK252 expressing Lbit-Tau and sBit-Synaptogyrin3, expression of Tau protein to which split luciferase is not fused, can lead to a decrease in luciferase signal. […]
As for `O=C(CCc1ccc(O)cc1)c1c(O)cc(O)cc1O` [phloretin], the “EGFP signal, difference between 0 and 50 µM treatment” value is given as 4 fold.

The next assay concerns Tau-Synaptogyrin3 interaction. Nature of the assay: Tau competition assay with phloretin-inducible Tau expression in HEK293T-TK252 clones, luciferase activity. Format: cell-based, Human. As to conditions: clone 1E2 co-transfected with pTK269 and pTK285, 0, 10 and 50 µM phloretin, 48 hours. The protocol: • FIG. 1 is a fluorescence microscopy image of the HEK293T cell line transfected with EGFP-fused Tau (pTK231: P(CMV)-Tau-EGFP) and Synaptogyrin 3 (pTK233:P(CMV)-EGFP-Synaptogyrin 3), showing the expression of both proteins 48 hours after transfection. • FIG. 2a is a schematic of the Protein Complementary Assay (PCA) process using the split luciferase method. Split luciferase consists of two fragments of the luciferase enzyme: a small bit (sBit) and a large bit (Lbit). […] Therefore, by fusing each fragment of the split luciferase to Tau and Synaptogyrin3, luciferase activity may be induced as a result of the interaction between Tau and Synaptogyrin3. […] The system includes a synthetic transcriptional activator, TtgA, and a synthetic promoter, PTtgR, prepared based on the flavonoid-regulated TtgR operon of the Pseudomonas putida DOT-T1E strain. In the absence of phloretin, TtgA binds to PTtgR and activates transcription (without phloretin), while in the presence of phloretin, TtgA dissociates from DNA and transcription is not activated (with phloretin). […]
Live cell luciferase assay: Live cell luciferase activity was measured using NanoGlo® Live Cell Assay System (Cat# N2012. Promega, WI, USA), according to manufacturer's instruction. […]
For the molecule `O=C(CCc1ccc(O)cc1)c1c(O)cc(O)cc1O` [phloretin], the “luciferase activity, difference between 0 and 50 µM treatment” value is reported as 2 fold.

The record behind these values is EP4682146A1, “COMPOSITION INCLUDING NOVEL PYRIDOINDOLE DERIVATIVE COMPOUND AS ACTIVE INGREDIENT FOR PREVENTION OR TREATMENT OF NEURODEGENERATIVE DISEASES” (Neurotarge Co., Ltd., priority 2023, dated 2024).
